In article PMC3499629 (Journal of medicinal chemistry, 2012):
“Also recorded” adds a separate entry of the source.

Target: Gag' (GST-Gag) (Human immunodeficiency virus type 1 group M subtype B, UniProt P12493)
Format: binding, HIV-1
Settings: DSF validation

## C=C(C)[C@@H]1CC[C@]2(C(=O)O)CC[C@]3(C)[C@H](CC[C@@H]4[C@@]5(C)CC[C@H](OC(=O)CC(C)(C)C(=O)O)C(C)(C)[C@@H]5CC[C@]43C)[C@@H]12 [Bevirimat]
  thermal stability (Tm) of Gag' in complex: increased the thermal stability; also recorded: higher melting temperature
